Source: US7361633B2, “Screening method and anti-tumor drug candidate obtained therefrom” (Ardana Bioscience Limited, priority 2002, dated 2008)
“Also recorded” adds a separate entry of the source.

Legend:
ERK1/2 [1] = test: ERK1/2 phosphorylation immunoblot in BPH-1 cells; assay type: cell-based, human; conditions: for extent of ERK1/2 activation: FIG. 5 panel c
Description: The panel depicts a representative anti-phospho-ERK1/2 w-c lysate immunoblot of stimulated BPH-1 cell extracts. […] Each bar of the histogram represents the mean±s.e. mean of three to four experimental replicates. […] Panel c) depicts the extent of ERK1/2 activation in BPH-1 cells induced by stimulation with GnRH I, II, Ant 135-25 and Ant 135-18. […] Each bar of the histogram represents the mean± s.e. mean of three to four experimental replicates.

ERK1/2 [2] = test: ERK1/2 phosphorylation immunoblot in JEG-3 cells; assay type: cell-based, human; conditions: for extent of ERK1/2 phosphorylation (activation): 100 nM, 10 minutes
Type I GnRH receptor = target: T1, Type I GnRH receptor (Rattus norvegicus, UniProt P30969); test: Inositol phosphate accumulation in SCL60 (HEK293) cells; assay type: cell-based; conditions: GnRH I 10 nM
T1 construct: expressed in transfected cells
T1 sequence (P30969 1-327): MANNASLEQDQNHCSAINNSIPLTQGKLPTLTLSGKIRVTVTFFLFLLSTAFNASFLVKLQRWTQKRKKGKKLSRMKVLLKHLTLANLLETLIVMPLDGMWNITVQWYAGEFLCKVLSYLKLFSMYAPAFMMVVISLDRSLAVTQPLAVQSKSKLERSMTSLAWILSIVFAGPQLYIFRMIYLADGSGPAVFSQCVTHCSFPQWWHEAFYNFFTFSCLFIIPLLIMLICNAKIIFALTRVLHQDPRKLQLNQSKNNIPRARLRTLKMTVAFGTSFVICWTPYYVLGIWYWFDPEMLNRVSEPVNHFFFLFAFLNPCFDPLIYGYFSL
Procedure: The histograms in panels a and b represent inositol phosphate accumulation data from HEK293 cells stably expressing the Type I GnRH receptor only (SCL60). […] In panels c and d, the liberated inositol phosphates generated were measured in the proto-gonadotrope cells (αT4) stably expressing the marmoset Type II GnRH receptor (designated αT4-II).
The ability of the four major agents under study at activating ectopically expressed Type I or Type II GnRHR were tested (FIG. 12). The classical signal transduction cascade activated by GnRHR stimulation is the Gαq-PLC-β cascade. Both Type I and II receptor can stimulate the Gαq-PLC type-G-protein and activate PLC-β which cleaves phosphatidylinositol bisphosphate (PIP2) into inositol trisphosphate (IP3), other lower inositol phosphates (IPn) and diacylglycerol (DAG). The major function of IP3 is to elevate intracellular Ca^2+ while DAG causes the activation of specific PKC (protein kinase C) isoforms.
Panels a and b of FIG. 12 depict the generation of free cytoplasmic ^3H-myo-inositols on the plasma membranes of HEK293 cells expressing the Type I GnRHR and of αT4 gonadotropes expressing the marmoset Type II GnRHR. Prior to agonist stimulation the respective cells were incubated in inositol-free growth media supplemented with 1 μCi/ml ^3H-myoinositol for 48 h. G protein coupled receptor (GPCR)-induced activation of PLC-β results in the cleavage of PIP2 (incorporating tritium ^3H) into free lower inositol phosphates (IPns).

[3] = system: human benign prostate hyperplastic (BPH-1) cells; test: Anti-proliferative effect on BPH-1 cells, viable cell count after 5 days; assay type: cell-based; conditions: 5 days continuous treatment, trypan blue exclusion
Procedure: (§1) Low cell density BPH-1 cell subcultures were treated for 5 days continuously with the indicated doses of GnRH I (a), GnRH II (b), Ant 135-18 (c) or Ant 135-25 (d) added directly to RPMI 1640 medium supplemented with 10% FCS, glutamine and penicillin/streptomycin. Ligands were replenished every 24 h. At the end of the stimulation period cells were removed form the growth plates by trypsin and mixed with trypan blue dye (enters non-viable cells). Only viable cells were therefore counted using a haemocytometer in quadruplicate for each ligand dose. The bars in each histogram represent the mean±s.e. mean of n=4 experiments.
(§2) Each cell type was plated at an initial minimal confluency (10-20%) to allow for 5 days of normal continual cell growth that would not result in 100% cell confluency by day 5. Each ligand was incubated, in triplicate for every experimental concentration, with the cell monolayers for five days with replacement of the ligand every 12 h. At the end of the stimulation period the number of viable cells was estimated by their capacity to prevent uptake of Trypan Blue stain.
Employing an identical growth and stimulation methodology to that described in the previous paragraph and in FIG. 1 we exposed the hyperplastic cell line, BPH-1, to the same panel of GnRH ligands and antagonistic analogues (FIG. 2). Reminiscent of FIG. 1 both endogenous GnRH agonists exert a similar mode of action with respect to their dose-dependent inhibition of BPH-1 cell growth over the five day stimulation period.

[4] = system: human JEG-3 choriocarcinoma cells; test: Anti-proliferative effect on JEG-3 cells, viable cell count after 5 days; assay type: cell-based; conditions: 5 days continuous treatment, trypan blue exclusion
Procedure: as §1, with “JEG-3” for “BPH-1”, “antagonist” for “Ant”, “Dulbecco's modified Eagles” for “RPMI 1640”, “from” for “form”, “with” for “by”
as §2

[5] = system: HEK293 cells stably expressing the Type I GnRHR (SCL60); test: Anti-proliferative effect on SCL60 cells, viable cell count after 5 days; assay type: cell-based, human; conditions: 5 days continuous treatment, trypan blue exclusion
Procedure: An identical methodology of measuring cell growth was employed as in FIG. 1.
as §2
We further investigated the nature of the ligand-receptor specificity of the anti-proliferative effects of GnRH receptor systems by studying our ligand panel effects upon a model cell background, i.e. SCL60 HEK293 cells stably expressing the rat Type I GnRHR. […] We attribute this greater effect of the GnRHR ligands upon the SCL60 cells to the much greater level of receptor expression in the SCL60 cells.

Compound	effect on GnRH-mediated ERK activation (ERK1/2 [1]; 1 μM SB203580, data not shown)	effect on GnRH I activation of ERK1/2 (ERK1/2 [2]; 20 μM SB203580, data not shown)	agonistic activity: liberated inositol phosphates at Type I GnRH receptor (Type I GnRH receptor)	agonistic activity: liberated inositol phosphates at Type I GnRH receptor (Type I GnRH receptor; listed as 135-25)	agonistic activity: liberated inositol phosphates at Type I GnRH receptor (Type I GnRH receptor; listed as Ant135-25)	agonistic activity: liberated inositol phosphates at Type I GnRH receptor (Type I GnRH receptor; listed as antagonist 135-25)	anti-proliferative effect (viable cell number) [3]	extent of ERK1/2 activation (ERK1/2 [1])	extent of ERK1/2 phosphorylation (activation) (ERK1/2 [2])	anti-proliferative effect (viable cell number) [4]	anti-proliferative effect (viable cell number) [5]	anti-proliferative effect (viable cell number) ([5]; listed as Ant135-25)	agonistic activity: liberated inositol phosphates at Type I GnRH receptor (Type I GnRH receptor; listed as 135-18)	agonistic activity: liberated inositol phosphates at Type I GnRH receptor (Type I GnRH receptor; listed as Ant135-18)	anti-proliferative effect (viable cell number) ([3]; listed as Ant135-18)	extent of ERK1/2 activation (ERK1/2 [1]; listed as Ant135-18)	extent of ERK1/2 phosphorylation (activation) (ERK1/2 [2]; listed as Ant135-18)	anti-proliferative effect (viable cell number) ([4]; listed as Ant135-18)	anti-proliferative effect (viable cell number) ([5]; listed as Ant135-18)	ERK1/2 activation, dose dependence (ERK1/2 [1]; FIG. 5 panel a)
C[S+]([O-])c1ccc(-c2nc(-c3ccncc3)c(-c3ccc(F)cc3)[nH]2)cc1 (centres unmarked) [SB203580]	no significant effect	not significantly affecting the activation of ERK1/2 MAPKs																		
Ac-D-Nal(2)-D-4-ClPhe-D-Pal-Ser-1-MePal-D-IsopropylLys-Leu-IsopropylLys-Pro-D-AlaNH2 [Ant 135-25]			no classical agonistic activity is demonstrated	no IPn-generating capacity	demonstrate no partial agonistic activity	failed to generate significant free inositol phosphate	anti-proliferative effect upon BPH-1 cells with a similar potency to that of GnRH I	A similar pattern to JEG-3 of ligand activation	activate ERK1/2 to a similar extent	clear dose-response relationships for the inhibition of cellular growth	greater anti-proliferative efficacy	nearly an as efficacious action as either GnRH I or GnRH II								
Ac-D-Nal(2)-D-4-ClPhe-D-Pal-Ser-Ile-D-IsopropylLys-Leu-IsopropylLys-Pro-D -AlaNH2 [Ant 135-18]			little classical agonistic capacity				much lower potency and efficacy compared to Ant 135-25 and GnRH I	A similar pattern to JEG-3 of ligand activation	least effective	much lower potency and efficacy compared to 135-25, GnRH I and II	low efficacy compared to the other ligands		no activation of the PLC-β signal at the Type I receptor evident	demonstrate no partial agonistic activity	low ant-proliferative potency	considerably less	considerably less	failed to demonstrate an anti-proliferative effect of a similar magnitude to that generated by GnRH I, GnRH II or Ant135-25	relatively ineffective at inhibiting the SCL60 cell proliferation	
GnRH I: Gonadotropin-Releasing Hormone, a decapeptide; the original form of GnRH, re-named GnRH I			yields an increase in free tritiated inositol phosphates; also recorded: significant increase in liberated inositol phosphates				potent and dose-dependent anti-proliferative effect; also recorded: more potent that GnRH II in its capacity to arrest cell growth	A similar pattern to JEG-3 of ligand activation	activate ERK1/2 to a similar extent	potent and dose-dependent anti-proliferative effect; also recorded: clear dose-response relationships for the inhibition of cellular growth	greater anti-proliferative efficacy; also recorded: dramatic reduction in the cells growth rate and significant loss of total cell number									strong and dose-dependent activation of ERK1/2
